The assay deals with T1, Histone-lysine N-methyltransferase EHMT2 (Homo sapiens, UniProt Q96KQ7).
T1 sequence (Q96KQ7 whole entry): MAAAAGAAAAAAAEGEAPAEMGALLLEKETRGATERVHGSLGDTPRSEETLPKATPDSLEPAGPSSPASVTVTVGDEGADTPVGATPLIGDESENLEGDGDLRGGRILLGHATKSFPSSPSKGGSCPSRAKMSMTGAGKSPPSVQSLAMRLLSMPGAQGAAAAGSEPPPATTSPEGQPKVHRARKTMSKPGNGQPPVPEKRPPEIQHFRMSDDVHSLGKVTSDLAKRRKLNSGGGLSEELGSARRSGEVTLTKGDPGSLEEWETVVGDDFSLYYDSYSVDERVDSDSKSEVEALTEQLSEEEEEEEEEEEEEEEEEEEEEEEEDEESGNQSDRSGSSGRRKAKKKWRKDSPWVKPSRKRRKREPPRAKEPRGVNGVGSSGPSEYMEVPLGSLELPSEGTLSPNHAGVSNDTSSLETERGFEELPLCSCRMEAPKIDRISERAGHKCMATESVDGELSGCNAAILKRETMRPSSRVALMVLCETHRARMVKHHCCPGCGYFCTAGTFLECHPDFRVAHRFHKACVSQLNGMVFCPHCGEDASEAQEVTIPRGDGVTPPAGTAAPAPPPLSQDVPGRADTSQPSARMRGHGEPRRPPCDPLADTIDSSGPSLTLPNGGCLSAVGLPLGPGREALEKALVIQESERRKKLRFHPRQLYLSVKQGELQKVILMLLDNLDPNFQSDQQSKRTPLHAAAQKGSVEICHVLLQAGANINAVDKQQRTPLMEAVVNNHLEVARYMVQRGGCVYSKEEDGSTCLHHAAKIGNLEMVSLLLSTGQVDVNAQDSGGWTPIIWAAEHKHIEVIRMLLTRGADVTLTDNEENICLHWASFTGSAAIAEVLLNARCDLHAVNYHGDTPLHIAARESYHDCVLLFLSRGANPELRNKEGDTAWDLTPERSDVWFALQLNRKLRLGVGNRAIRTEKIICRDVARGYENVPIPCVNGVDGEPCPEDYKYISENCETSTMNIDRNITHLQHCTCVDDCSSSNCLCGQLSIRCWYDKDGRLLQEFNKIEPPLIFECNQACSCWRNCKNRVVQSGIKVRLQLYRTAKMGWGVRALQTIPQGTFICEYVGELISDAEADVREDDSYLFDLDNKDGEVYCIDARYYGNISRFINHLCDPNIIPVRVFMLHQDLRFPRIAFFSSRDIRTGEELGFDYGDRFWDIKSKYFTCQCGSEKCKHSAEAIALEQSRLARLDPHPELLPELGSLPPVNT
As to the kind of experiment: Enzyme Inhibitory Efficacy Assay. The protocol: Specific experimental methods are as follows. First, the compounds of Examples 1 to 89 of 1 nM to 100 μM (4 conc.) were put into a 384 well plate (25 μL/well), and 2 μM […] enzyme (4 conc.) was put into the 384 well plate (25 μL/well). The plate was then centrifuged at 1,500 rpm for 5 seconds after sealing the plate with plate sealing foil. After incubating the EHMT2/G9a enzyme, SAM, and the compounds of Examples above at room temperature for 10 minutes, 2 μM histone H3 peptide (4 conc.) was added to the 384-well plate (25 μL/well). After sealing the plate with plate sealing foil and centrifuging at 1,500 rpm for 5 seconds, an enzymatic reaction was performed at room temperature for 1 hour. Upon completion of the enzyme reaction, 5 μL each of 200 nM Ulight -Streptavidin (4 conc.) and 8 nM Eu-antibody (4 conc.) was added to each well of the plate. The plate was sealed with plate sealing foil, centrifuged at 1,500 rpm for 5 seconds and reacted at room temperature for 1 hour. The signal values were measured with Envision (Ex 320 nm, Em 665 nm), and all background values obtained by reacting without enzyme were deleted from the measured raw data values.

By IC50 is commonly meant the concentration that inhibits the measured activity by half. Low readings indicate higher potency, high ones lower potency.

Compound `COc1cc2c(NC3CCN(C(C)C)CC3)nc(N3CC(F)(F)C3)nc2cc1C#CCCN1CCCC1` [US20230365530, Example 58] had an IC50 of less than 100 nM.

For the compound `COc1cc2c(NC3CCN(C(C)C)CC3)nc(N(C)CC(=O)OC(C)(C)C)nc2cc1C#CCCN1CCCC1` [US20230365530, Example 82], the IC50 was less than 100 nM.
